PubChem BioAssay (NCI)
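The compound was tested at five concentrations on cells cultured in 96-well plates, with a 48-hour exposure period. Definition used: TGI = concentration required for complete inhibition of growth.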

Columns and labels:
Test in all cases: inhibition of tumour cell growth, NCI panel, 48 h
ACHN renal = test system: ACHN renal
CCRF-CEM leukemia = test system: CCRF-CEM leukemia
COLO 205 colon = test system: COLO 205 colon
EKVX NSCLC = test system: EKVX NSCLC
HCT-15 colon = test system: HCT-15 colon
HS 578T breast = test system: HS 578T breast
NCI-H522 lung = test system: NCI-H522 lung
PC-3 prostate = test system: PC-3 prostate
RPMI-8226 leukemia = test system: RPMI-8226 leukemia
SK-MEL-5 melanoma = test system: SK-MEL-5 melanoma

Row | Structure (SMILES) | TGI (ACHN renal) [µM] | TGI (CCRF-CEM leukemia) [µM] | TGI (COLO 205 colon) [µM] | TGI (EKVX NSCLC) [µM] | TGI (HCT-15 colon) [µM] | TGI (HS 578T breast) [µM] | TGI (NCI-H522 lung) [µM] | TGI (PC-3 prostate) [µM] | TGI (RPMI-8226 leukemia) [µM] | TGI (SK-MEL-5 melanoma) [µM]
1 | Clc1cc2c(c(CSC3=NCN(CC4CC4)CN3)c1)OCOC2 | 45.6 | 27.2 | 28.4 | 53.4 | > 100 | > 100 | 30.1 | 65.8 | 38.2 | 32.2
2 | FC(F)(F)c1ccccc1N1CCN(c2nc(-c3cccs3)nc3ccc(Br)cc23)CC1 | > 100 | 39.8 | 65.1 | > 100 | > 100 | > 100 | > 100 | 49.5 | 34.5 | 30.9
3 | C/C(=N/NC(=S)Nc1ccccc1Cl)c1cccc(/C(C)=N\NC(=S)Nc2ccccc2Cl)n1 | > 100 | > 100 | > 100 | > 100 | > 100 | > 100 | > 100 | > 100 | > 100 | > 100
4 | c1ccc(-c2sc(-c3cccs3)cc2Cc2cccs2)cc1 | > 10 | > 10 | > 10 | > 10 | > 10 | > 10 | > 10 | > 10 | > 10 | > 10
5 | c1ccc(C2=Nc3nc4ccccc4n3C(c3ccccc3)C2)cc1 (stereo not given) | > 100 | > 100 | > 100 | > 100 | > 100 | > 100 | > 100 | > 100 | > 100 | > 100
6 | CN1C(=S)C(c2ccccc2)Sc2ccccc21 (stereo not given) | > 100 | > 100 | > 100 | > 100 | > 100 | > 100 | > 100 | > 100 | > 100 | > 100
7 | CC(=O)N1CCc2c([nH]c3ccc(Br)cc23)C1c1ccccc1 (stereo not given) | > 10 | > 10 | > 10 | > 10 | > 10 | > 10 | > 10 | > 10 | > 10 | > 10
8 | Cn1ccn2c3nc4ccccc4nc3c(=O)c(C#N)c12 | > 100 | > 100 | > 100 | > 100 | > 100 | > 100 | > 100 | > 100 | > 100 | > 13.4
9 | COC(=O)C1=C(C)NC2(O)C=CC(=O)C3C(=O)N(c4ccccc4)C(=O)C132 (stereo not given) | > 100 | > 100 | > 100 | > 100 | > 100 | > 100 | > 100 | > 100 | > 100 | > 100
10 | Cc1c(C(=O)N2CCN(c3ccc([N+](=O)[O-])cc3)CC2)[n+](=O)c2cc(Cl)c(Cl)cc2n1[O-] | 26.3 | > 100 | > 100 | 41.1 | 36.2 | 93.6 | 32.7 | 45 | 63.4 | 24.6
11 | Cn1c(=O)c2c(nc3n(Cc4ccccc4)c(=O)c(NCCBr)cn23)n(C)c1=O | 32.3 | > 100 | > 100 | 48.1 | > 100 | 76.6 | 62.8 | > 100 | > 100 | > 100
12 | COc1ccc2cc1Oc1ccc(cc1)C(Sc1ccccc1)CCOC(=O)CC2 (stereo not given) | > 100 | > 100 | > 100 | > 100 | > 100 | > 100 | > 100 | > 100 | > 100 | > 100
13 | O=C(/C=C/c1ccsc1)c1ccco1 | 22.8 | 22.9 | 32.8 | 36 | 20.1 | 29.6 | 4.67 | 28.5 | 16.1 | 29.7
14 | C=CC1ON(Cc2ccccc2)CCc2cc(OC)c(OC)cc21 (stereo not given) | > 100 | > 100 | > 100 | > 100 | > 100 | > 100 | > 100 | > 100 | > 100 | 31.6
15 | O=C1Sc2ccc(Br)cc2C(=O)Sc2ccccc21 | 32.8 | 7.47 | 28.4 | 22.2 | 46.5 | 39.3 | 22.1 | 26.1 | 16.7 | 29.5
16 | CCOC(=O)/C(=C\c1ccc(N(C)C)cc1)S(=O)(=O)C(F)(F)C(F)(F)C(F)(F)C(F)(F)F | > 100 | > 100 | > 100 | > 100 | > 100 | > 100 | > 100 | > 100 | > 100 | > 100
17 | COc1cc(C2SCC(=O)N2c2ccc(-n3c(-c4ccccc4)nc4ccccc4c3=O)cc2)ccc1O (stereo not given) | > 100 | > 100 | > 100 | > 100 | > 100 | > 100 | > 100 | > 100 | > 100 | > 100
